Assay results: PubChem BioAssay (NCI)
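Five compound concentrations were applied to cells in 96-well plates for 48 hours; endpoints were derived by simple linear interpolation of the resulting dose-response curve. The concentration for 50% growth inhibition is given as GI50. Definition used: TGI = concentration required for complete inhibition of growth.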

Key:
Experiment in all cases: NCI tumour cell line growth inhibition, 48 h
786-0 renal = system: 786-0 renal
HOP-92 NSCLC = system: HOP-92 NSCLC
K-562 leukemia = system: K-562 leukemia
LOX IMVI melanoma = system: LOX IMVI melanoma
M14 melanoma = system: M14 melanoma
MALME-3M melanoma = system: MALME-3M melanoma
RPMI-8226 leukemia = system: RPMI-8226 leukemia
RXF 393 renal = system: RXF 393 renal
SF-295 CNS = system: SF-295 CNS
SF-539 CNS = system: SF-539 CNS
SK-MEL-2 melanoma = system: SK-MEL-2 melanoma
SK-MEL-28 melanoma = system: SK-MEL-28 melanoma
SK-MEL-5 melanoma = system: SK-MEL-5 melanoma
TK-10 renal = system: TK-10 renal
U251 CNS = system: U251 CNS
UACC-257 melanoma = system: UACC-257 melanoma
UO-31 renal = system: UO-31 renal
A498 renal = system: A498 renal
BT-549 breast = system: BT-549 breast
HT29 colon = system: HT29 colon
NCI-H460 lung = system: NCI-H460 lung
OVCAR-8 ovarian = system: OVCAR-8 ovarian
SNB-75 CNS = system: SNB-75 CNS
A549 NSCLC = system: A549 NSCLC
ACHN renal = system: ACHN renal
CAKI-1 renal = system: CAKI-1 renal
CCRF-CEM leukemia = system: CCRF-CEM leukemia
COLO 205 colon = system: COLO 205 colon
DU-145 prostate = system: DU-145 prostate
EKVX NSCLC = system: EKVX NSCLC
HCC-2998 colon = system: HCC-2998 colon
HCT-116 colon = system: HCT-116 colon
HCT-15 colon = system: HCT-15 colon
HL-60(TB) leukemia = system: HL-60(TB) leukemia
HOP-62 NSCLC = system: HOP-62 NSCLC
HS 578T breast = system: HS 578T breast
IGROV1 ovarian = system: IGROV1 ovarian
KM12 colon = system: KM12 colon
MCF7 breast = system: MCF7 breast
MDA-MB-231 breast = system: MDA-MB-231 breast
MDA-MB-435 = system: MDA-MB-435
MOLT-4 leukemia = system: MOLT-4 leukemia
NCI-H226 lung = system: NCI-H226 lung
NCI-H23 lung = system: NCI-H23 lung
NCI-H522 lung = system: NCI-H522 lung
NCI/ADR-RES ovarian = system: NCI/ADR-RES ovarian
OVCAR-3 ovarian = system: OVCAR-3 ovarian
OVCAR-4 ovarian = system: OVCAR-4 ovarian
OVCAR-5 ovarian = system: OVCAR-5 ovarian
PC-3 prostate = system: PC-3 prostate
SF-268 CNS = system: SF-268 CNS
SK-OV-3 ovarian = system: SK-OV-3 ovarian
SN12C renal = system: SN12C renal
SNB-19 CNS = system: SNB-19 CNS
SW-620 colon = system: SW-620 colon
T-47D breast = system: T-47D breast
UACC-62 melanoma = system: UACC-62 melanoma
SR leukemia = system: SR leukemia

## O=C(Nc1ccc2cc3ccc(NC(=O)N4CCCCCC4)cc3nc2c1)N1CCCCCC1
786-0 renal
  GI50: 0.344 µM
  TGI: 1.28 µM
HOP-92 NSCLC
  GI50: 1.57 µM
  TGI: 3.28 µM
K-562 leukemia
  GI50: 0.35 µM
  TGI: 1.23 µM
LOX IMVI melanoma
  GI50: 1.42 µM
  TGI: 2.75 µM
M14 melanoma
  GI50: 1.32 µM
  TGI: 2.78 µM
MALME-3M melanoma
  GI50: 1.13 µM
  TGI: 2.53 µM
RPMI-8226 leukemia
  GI50: 0.315 µM
  TGI: 1.02 µM
RXF 393 renal
  GI50: 0.219 µM
  TGI: 0.505 µM
SF-295 CNS
  GI50: 0.783 µM
  TGI: 2.12 µM
SF-539 CNS
  GI50: 0.841 µM
  TGI: 2.09 µM
SK-MEL-2 melanoma
  GI50: 1.62 µM
  TGI: 3.14 µM
SK-MEL-28 melanoma
  GI50: 1.32 µM
  TGI: 2.67 µM
SK-MEL-5 melanoma
  GI50: 1.48 µM
  TGI: 2.81 µM
TK-10 renal
  GI50: 1.92 µM
  TGI: 3.46 µM
U251 CNS
  GI50: 0.534 µM
  TGI: 1.81 µM
UACC-257 melanoma
  GI50: 1.81 µM
  TGI: 3.36 µM
UO-31 renal
  GI50: 1.66 µM
  TGI: 3.04 µM

## CCN(CC)CCNC(=O)c1cc(Cl)c(N)cc1OC
A498 renal
  GI50: 11.1 µM
  TGI: 40.1 µM
BT-549 breast
  GI50: 82.3 µM
HT29 colon
  GI50: 20.8 µM
  TGI: 38.7 µM
K-562 leukemia
  GI50: 56.5 µM
NCI-H460 lung
  GI50: 23.5 µM
  TGI: 45.8 µM
OVCAR-8 ovarian
  GI50: 28.4 µM
  TGI: 46.2 µM
SF-295 CNS
  GI50: 25.3 µM
  TGI: 44.2 µM
SK-MEL-5 melanoma
  GI50: 99.6 µM
SNB-75 CNS
  GI50: 50.2 µM
UACC-257 melanoma
  GI50: 13.9 µM
  TGI: 19.4 µM
UO-31 renal
  GI50: 99.1 µM

## CCc1cccc(C(C)C)c1NC1=C([n+]2ccc(C)cc2)C(=O)c2ccccc2C1=O
786-0 renal
  TGI: 12.1 µM
A498 renal
  TGI: 8.79 µM
A549 NSCLC
  TGI: 22.5 µM
ACHN renal
  TGI: 1.68 µM
CAKI-1 renal
  TGI: 5.41 µM
CCRF-CEM leukemia
  TGI: 4 µM
COLO 205 colon
  TGI: 2.57 µM
DU-145 prostate
  TGI: 3.92 µM
EKVX NSCLC
  TGI: 5.16 µM
HCC-2998 colon
  TGI: 20.9 µM
HCT-116 colon
  TGI: > 100 µM
HCT-15 colon
  TGI: 13.9 µM
HL-60(TB) leukemia
  TGI: 9.29 µM
HOP-62 NSCLC
  TGI: 9.62 µM
HOP-92 NSCLC
  TGI: 7.06 µM
HS 578T breast
  TGI: > 100 µM
HT29 colon
  TGI: 7.75 µM
IGROV1 ovarian
  TGI: 8.18 µM
K-562 leukemia
  TGI: 20.3 µM
KM12 colon
  TGI: > 43.4 µM
LOX IMVI melanoma
  TGI: 3.39 µM
M14 melanoma
  TGI: 3.16 µM
MALME-3M melanoma
  TGI: 6.91 µM
MCF7 breast
  TGI: 1.3 µM
MDA-MB-231 breast
  TGI: > 34.7 µM
MDA-MB-435
  TGI: 3.12 µM
MOLT-4 leukemia
  TGI: 9.43 µM
NCI-H226 lung
  TGI: 8.76 µM
NCI-H23 lung
  TGI: > 100 µM
NCI-H460 lung
  TGI: 4.09 µM
NCI-H522 lung
  TGI: 15.8 µM
NCI/ADR-RES ovarian
  TGI: 37.8 µM
OVCAR-3 ovarian
  TGI: 2.31 µM
OVCAR-4 ovarian
  TGI: 10.9 µM
OVCAR-5 ovarian
  TGI: 23.2 µM
OVCAR-8 ovarian
  TGI: 4.79 µM
PC-3 prostate
  TGI: 8.91 µM
RPMI-8226 leukemia
  TGI: 2.71 µM
RXF 393 renal
  TGI: 4.28 µM
SF-268 CNS
  TGI: 5.8 µM
SF-295 CNS
  TGI: 18.1 µM
SF-539 CNS
  TGI: 4.27 µM
SK-MEL-2 melanoma
  TGI: 28.9 µM
SK-MEL-28 melanoma
  TGI: 20.8 µM
SK-MEL-5 melanoma
  TGI: 4.66 µM
SK-OV-3 ovarian
  TGI: 19.7 µM
SN12C renal
  TGI: 8.35 µM
SNB-19 CNS
  TGI: > 100 µM
SNB-75 CNS
  TGI: 7.32 µM
SW-620 colon
  TGI: > 100 µM
T-47D breast
  TGI: 2.24 µM
TK-10 renal
  TGI: 29.1 µM
U251 CNS
  TGI: 12.1 µM
UACC-257 melanoma
  TGI: 4.45 µM
UACC-62 melanoma
  TGI: 4.22 µM
UO-31 renal
  TGI: 10 µM

## c1ccc2c(c1)ccc1nc3ccccn3c12
786-0 renal
  TGI: > 100 µM
A549 NSCLC
  TGI: > 100 µM
ACHN renal
  TGI: > 100 µM
BT-549 breast
  TGI: > 100 µM
CCRF-CEM leukemia
  TGI: > 100 µM
COLO 205 colon
  TGI: > 100 µM
DU-145 prostate
  TGI: > 100 µM
EKVX NSCLC
  TGI: > 100 µM
HCC-2998 colon
  TGI: > 100 µM
HCT-15 colon
  TGI: > 100 µM
HL-60(TB) leukemia
  TGI: > 100 µM
HOP-62 NSCLC
  TGI: > 100 µM
HOP-92 NSCLC
  TGI: > 100 µM
HS 578T breast
  TGI: > 100 µM
HT29 colon
  TGI: > 100 µM
IGROV1 ovarian
  TGI: > 100 µM
K-562 leukemia
  TGI: > 100 µM
KM12 colon
  TGI: > 100 µM
M14 melanoma
  TGI: > 100 µM
MALME-3M melanoma
  TGI: > 100 µM
MCF7 breast
  TGI: > 100 µM
MDA-MB-435
  TGI: > 100 µM
MOLT-4 leukemia
  TGI: > 100 µM
NCI-H226 lung
  TGI: > 100 µM
NCI-H23 lung
  TGI: > 100 µM
NCI-H460 lung
  TGI: > 100 µM
NCI/ADR-RES ovarian
  TGI: > 100 µM
OVCAR-3 ovarian
  TGI: > 100 µM
OVCAR-5 ovarian
  TGI: > 100 µM
OVCAR-8 ovarian
  TGI: > 100 µM
PC-3 prostate
  TGI: > 100 µM
RPMI-8226 leukemia
  TGI: > 100 µM
RXF 393 renal
  TGI: > 100 µM
SF-268 CNS
  TGI: > 100 µM
SF-295 CNS
  TGI: > 100 µM
SF-539 CNS
  TGI: > 100 µM
SK-MEL-28 melanoma
  TGI: > 100 µM
SK-MEL-5 melanoma
  TGI: > 100 µM
SK-OV-3 ovarian
  TGI: > 100 µM
SN12C renal
  TGI: > 100 µM
SNB-19 CNS
  TGI: > 100 µM
SNB-75 CNS
  TGI: > 100 µM
SR leukemia
  TGI: > 100 µM
SW-620 colon
  TGI: > 100 µM
T-47D breast
  TGI: > 100 µM
TK-10 renal
  TGI: > 100 µM
U251 CNS
  TGI: > 100 µM
UACC-257 melanoma
  TGI: > 100 µM
UACC-62 melanoma
  TGI: > 100 µM
UO-31 renal
  TGI: > 100 µM
